# Measured values: patent EP4603105A1, “PHARMACEUTICAL COMPOSITION CONTAINING CYCLIC COMPOUND HAVING SELECTIVE KRAS INHIBITORY EFFECT AGAINST HRAS AND NRAS” (CHUGAI SEIYAKU KABUSHIKI KAISHA, priority 2022, dated 2024)
# pIC50: −log10 of the molar value. Where two headings read alike, the source gives them in different places. *1 amine or outer side, *2 acyl side, *3 side chain or, on linkers, in order; H or OH if unused. Where a SMILES comes first, the peptide text is derived from it. Bridges are numbered along the chain shown (N, C = ends). [ ]: non-standard residue; d: D form. The star is where a group is joined. X25 = O=C([C@H](Cc1ccc(C(F)(F)F)cc1)N(CCC(F)(F)F)[*:1])[*:2]; hPhe(3-Cl-4-CF3) = N[C@@H](CCc1ccc(C(F)(F)F)c(Cl)c1)C(=O)O; NEtPhe(4-CF3) = CCN[C@@H](Cc1ccc(C(F)(F)F)cc1)C(=O)O; X32 = Cc1ccc(C[C@@H](C(=O)[*:2])N(CC2CCCC2)[*:1])cc1; NMeGly(cPent) = CN[C@H](C(=O)O)C1CCCC1; NMeD = CN[C@@H](CC(=O)O)C(=O)O; NMeL = CN[C@@H](CC(C)C)C(=O)O; Morpholide = C1CN(*)CCO1; NMeA = CN[C@@H](C)C(=O)O; Ac5c = NC1(C(=O)O)CCCC1; Aze = O=C(O)[C@@H]1CCN1; Ac3c = NC1(C(=O)O)CC1; Sar = CNCC(=O)O
# Tests used:
# [1] = system: human lung cancer strain NCI-H441; assay type: cell-based
# Protocol: A test compound was dispensed into a U-bottom 384-well plate as 40 nL serially diluted dimethyl sulfoxide solutions using a liquid handler Echo (LABCYTE). […] This cell suspension was dispensed in an amount of 40 µL per well into a plate containing the test compound, and cultured at 37°C in a 5% carbon dioxide gas incubator. Four days later, 20 µL of CellTiter-Glo (registered trademark) (Promega) was added to each well and […] was measured. […]
# [2] = molecular target: GDP-bound NRAS wild-type protein (Homo sapiens, UniProt P01111); assay: Binding to NRAS by surface plasmon resonance (SPR), KD and KD ratio to KRAS
# Protocol: (§1) Surface plasmon resonance was used to analyze the binding affinity of compounds for KRAS, NRAS, and HRAS. The apparatus used was Biacore 8K, 8K+, or T200 (GE Healthcare), and the running buffer used was HBS (10 mM HEPES-NaOH, 150 mM NaCl, pH 7.4) containing 1 mM DTT, 10 mM MgCl2, 0.01% Tween 20, 10 µM GDP, and 4% DMSO.
# (§2) Biotinylated Avi-tag fusion KRAS, NRAS, and HRAS proteins were expressed in E. coli BL21 (DE3) strains, and after cells were homogenized, they were purified using Streptavidin Mutein Matrix and Superdex 75. After purification, GDP-loaded KRAS, NRAS, and HRAS proteins were immobilized on the surface of Sensor Chip CAP (Cytiva) coated with Biotin CAPture Reagent in an immobilization amount of about 100 to 300 RU. Binding of each compound was evaluated by the Single Cycle Kinetics method, and a running buffer or a compound solution was added to the RAS protein non-immobilized surface and the immobilized surface to obtain a binding response. The flow rate was set to 100 µL/min, and in the compound-adding cycle, compound solutions having different concentrations were intermittently added for 75 seconds each, starting from a low concentration. […] In the blank cycle, a running buffer was intermittently added and not the compound solution. The Biotin CAPture Reagent and RAS proteins were immobilized for each cycle, and at the end of each cycle, the sensor chip was regenerated by the regeneration solution appended to the Biotin CAPture Kit (Cytiva). Measurement was carried out at 30°C.
# (§3) The resulting sensorgram was subjected to curve fitting based on a 1:1 binding model on Biacore Insight Evaluation Software or T200 Evaluation Software, and thereby the dissociation constant KD of each compound with respect to KRAS, NRAS, and HRAS was determined. […] Blank indicates a compound from which the KD value with respect to NRAS or HRAS was not obtained.
# HRAS wild-type protein = HRAS wild-type protein (Homo sapiens, UniProt P01112); assay: Binding to HRAS by surface plasmon resonance (SPR), KD and KD ratio to KRAS
# Protocol: as §1, §2, §3
# [3] = ratio of the KD value with respect to GDP-bound NRAS wild-type protein to the KD value with respect to KRAS
# [4] = ratio of the KD value with respect to HRAS wild-type protein to the KD value with respect to KRAS
# [5] = ratio of KD for GDP-bound NRAS wild-type protein to KD for KRAS
# [6] = ratio of KD for HRAS wild-type protein to KD for KRAS
# [7] = ratio of KD value for GDP-bound NRAS wild-type protein to KD value for KRAS (SPR)
# [8] = ratio of KD value for HRAS wild-type protein to KD value for KRAS (SPR)
# Sequence of GDP-bound NRAS wild-type protein (P01111 whole entry): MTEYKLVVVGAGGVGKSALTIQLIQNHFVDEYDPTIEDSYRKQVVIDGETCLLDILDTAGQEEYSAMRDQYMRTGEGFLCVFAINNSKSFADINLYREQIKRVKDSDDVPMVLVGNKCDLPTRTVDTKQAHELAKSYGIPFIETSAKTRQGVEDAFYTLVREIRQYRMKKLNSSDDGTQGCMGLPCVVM
# Sequence of HRAS wild-type protein (P01112 whole entry): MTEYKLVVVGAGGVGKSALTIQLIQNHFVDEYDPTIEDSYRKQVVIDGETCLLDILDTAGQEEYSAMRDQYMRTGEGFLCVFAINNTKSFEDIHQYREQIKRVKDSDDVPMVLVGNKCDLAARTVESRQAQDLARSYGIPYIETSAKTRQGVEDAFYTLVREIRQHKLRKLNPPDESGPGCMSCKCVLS
Structure (SMILES),pIC50 [1],"NRAS /KRAS [2, 3]",HRAS /KRAS (HRAS wild-type protein; [4]),"NRAS /KRAS [2, 5]",HRAS /KRAS (HRAS wild-type protein; [6]),"pIC50 ([1]; NCI-H441 cells, 4 days, CellTiter-Glo, read-out: NCl-H441 IC50)","NRAS /KRAS [2, 7]",HRAS /KRAS (HRAS wild-type protein; [8])
CCO[C@@H]1C[C@H]2C(=O)NC3(CCC3)C(=O)N(C)[C@@H](C3CCCC3)C(=O)N(CCC3CCC3)[C@H](C(=O)N(C)C)CC(=O)N(C)[C@@H](CC)C(=O)N[C@@H]([C@@H](C)CC)C(=O)N(C)CC(=O)N(C)[C@H]3CCCCN(C3=O)[C@@H](Cc3ccc(C(F)(F)F)cc3)C(=O)N(C)CC(=O)N[C@@H](CCc3cc(F)c(C(F)(F)F)c(F)c3)C(=O)N2C1 [PP0645],7.92,B (a compound having 3 or more and less than 10 is denoted as B),B (a compound having 3 or more and less than 10 is denoted as B),–,–,–,–,–
CCOC[C@H]1C(=O)N[C@@H]([C@@H](C)CC)C(=O)N2CCC[C@H]2C(=O)N(C)[C@H]2C/C=C\CCN(C2=O)[C@@H](Cc2ccc(C(F)(F)F)cc2)C(=O)N(C)CC(=O)N[C@@H](CCc2ccc(C(F)(F)F)c(OC)c2)C(=O)N2C[C@H](OCC)C[C@H]2C(=O)N(C)C2(CCC2)C(=O)N(C)[C@@H](C(CC)CC)C(=O)N(C)[C@H](C(=O)N(C)C)CC(=O)N1C [PP2319],8.02,AA (a compound having 20 or more is denoted as AA),A (a compound having 10 or more and less than 20 is denoted as A),–,–,–,–,–
CC[C@H](C)[C@@H]1NC(=O)[C@H](CC(C)C)N(C)C(=O)C[C@@H](C(=O)N2CCOCC2)N(C)C(=O)[C@H](C2CCCC2)N(C)C(=O)C2(CCCC2)NC(=O)[C@@H]2CCCN2C(=O)[C@H](CCc2ccc(C(F)(F)F)c(Cl)c2)NC(=O)CN(C)C(=O)[C@H](Cc2ccc(C(F)(F)F)cc2)N(CCC(F)(F)F)C(=O)CN(C)C(=O)CN(C)C1=O [PP0131] ([NMeL]I[Sar][Sar][X25][Sar][hPhe(3-Cl-4-CF3)]P[Ac5c][NMeGly(cPent)][NMeD]-Morpholide; lactam N-11),7.95,–,–,B (a compound having 3 or more and less than 10 is denoted as B),C (A compound having a KD ratio of 0.1 or more and less than 3 is denoted as C),–,–,–
C#CC[C@H]1C(=O)N[C@@H]([C@@H](C)CC)C(=O)N(C)CC(=O)N(C)[C@H]2C/C=C\CCN(C2=O)[C@@H](Cc2ccc(C(F)(F)F)cc2)C(=O)N(C)CC(=O)N[C@@H](CCc2ccc(C(F)(F)F)c(Cl)c2)C(=O)N2CC3(CC3)C[C@H]2C(=O)NC2(CC(C)(C)C2)C(=O)N(C)[C@@H](C2CCCC2)C(=O)N(C)[C@H](C(=O)N(C)C)CC(=O)N1C [PP2980],7.93,–,–,A (a compound having 10 or more and less than 20 is denoted as A),B (a compound having 3 or more and less than 10 is denoted as B),–,–,–
CCC[C@H]1C(=O)N[C@@H]([C@@H](C)CC)C(=O)N(C2CC2)CC(=O)N(C)[C@H]2C/C=C\CCN(C2=O)[C@@H](Cc2ccc(C)cc2)C(=O)N(C)CC(=O)N[C@@H](CCc2cc(Cl)c(C(F)F)c(Cl)c2)C(=O)N2C[C@H](OCC)C[C@H]2C(=O)NC2(CC(C)(C)C2)C(=O)N(C)[C@@H](C2CCCC2)C(=O)N(C)[C@H](C(=O)N(C)C)CC(=O)N1C [PP2877],7.02,–,–,A (a compound having 10 or more and less than 20 is denoted as A),A (a compound having 10 or more and less than 20 is denoted as A),–,–,–
CC[C@H](C)[C@@H]1NC(=O)[C@H](CC(C)C)N(C)C(=O)C[C@@H](C(=O)N2CCOCC2)N(C)C(=O)[C@H](C2CCCC2)N(C)C(=O)C2(CC2)NC(=O)[C@@H]2CCCN2C(=O)[C@H](CCc2ccc(C(F)(F)F)c(Cl)c2)NC(=O)CN(C)C(=O)[C@H](Cc2ccc(C(F)(F)F)cc2)N(CC)C(=O)[C@@H]2CCN2C(=O)[C@H](C)N(C)C1=O [PP0220] ([NMeL]I[NMeA][Aze][NEtPhe(4-CF3)][Sar][hPhe(3-Cl-4-CF3)]P[Ac3c][NMeGly(cPent)][NMeD]-Morpholide; lactam N-11),8.11,–,–,C (A compound having a KD ratio of 0.1 or more and less than 3 is denoted as C),C (A compound having a KD ratio of 0.1 or more and less than 3 is denoted as C),–,–,–
CC[C@H](C)[C@@H]1NC(=O)[C@H](CC(C)C)N(C)C(=O)C[C@@H](C(=O)N2CCOCC2)N(C)C(=O)[C@H](C2CCCC2)N(C)C(=O)C2(CCCC2)NC(=O)[C@@H]2CCCN2C(=O)[C@H](CCc2ccc(C(F)(F)F)c(Cl)c2)NC(=O)CN(C)C(=O)[C@H](Cc2ccc(C)cc2)N(CC2CCCC2)C(=O)[C@@H]2CCN2C(=O)[C@H](C)N(C)C1=O [PP0084] ([NMeL]I[NMeA][Aze][X32][Sar][hPhe(3-Cl-4-CF3)]P[Ac5c][NMeGly(cPent)][NMeD]-Morpholide; lactam N-11),7.30,–,–,C (A compound having a KD ratio of 0.1 or more and less than 3 is denoted as C),B (a compound having 3 or more and less than 10 is denoted as B),–,–,–
CCOC[C@H]1C(=O)N[C@@H]([C@@H](C)CC)C(=O)N(C)CC(=O)N(C)[C@H]2C/C=C\CCN(C2=O)[C@@H](Cc2ccc(C)c(F)c2)C(=O)N(C)CC(=O)N[C@@H](CCc2ccc(C(F)(F)F)c(OC)c2)C(=O)N2C[C@@H](C)C[C@H]2C(=O)NC2(CC(C)(C)C2)C(=O)N(C)[C@@H](C2CCCC2)C(=O)N(C)[C@H](C(=O)N(C)CC)CC(=O)N1C [PP2698],–,–,–,A (a compound having 10 or more and less than 20 is denoted as A),A (a compound having 10 or more and less than 20 is denoted as A),7.52,–,–
CC[C@H](C)[C@@H]1NC(=O)[C@H](CC2CC2)N(C)C(=O)C[C@@H](C(=O)N(C)C)N(C)C(=O)[C@H](C2CCCC2)N(C)C(=O)C2(CC(C)(C)C2)NC(=O)[C@@H]2C[C@@H](C(F)(F)F)CN2C(=O)[C@H](CCc2cc(F)c(C(F)(F)F)c(F)c2)NC(=O)CN(C)C(=O)[C@H](Cc2ccc(F)cc2)N2CC/C=C\C[C@@H](C2=O)N(C)C(=O)CN(C)C1=O [PP1507],7.79,–,–,–,–,–,A (a compound having 10 or more and less than 20 is denoted as A),A (a compound having 10 or more and less than 20 is denoted as A)
CCCC[C@H]1C(=O)N[C@@H]([C@@H](C)CC)C(=O)N(C)CC(=O)N(C)[C@H]2C/C=C\CCN(C2=O)[C@@H](Cc2ccc(C(F)(F)F)cc2)C(=O)N(C)CC(=O)N[C@@H](CCc2cc(F)c(C(F)(F)F)c(F)c2)C(=O)N2C[C@@H](C)C[C@H]2C(=O)NC2(CC(C)(C)C2)C(=O)N(C)[C@@H](C2CCCC2)C(=O)N(C)[C@H](C(=O)N(C)C)CC(=O)N1C [PP1661],8.24,–,–,–,–,–,A (a compound having 10 or more and less than 20 is denoted as A),A (a compound having 10 or more and less than 20 is denoted as A)
CCC[C@H]1C(=O)N[C@@H](C2CCCC2)C(=O)N(C)CC(=O)N(C)[C@H]2C/C=C\CCN(C2=O)[C@@H](Cc2ccc(C(F)(F)F)cc2)C(=O)N(C)CC(=O)N[C@@H](CCc2ccc(C(F)(F)F)c(Cl)c2)C(=O)N2C[C@H](OCC)C[C@H]2C(=O)NC2(CC(C)(C)C2)C(=O)N(C)[C@@H](C2CCCC2)C(=O)N(C)[C@H](C(=O)N(C)C)CC(=O)N1C [PP2984],8.02,–,–,A (a compound having 10 or more and less than 20 is denoted as A),B (a compound having 3 or more and less than 10 is denoted as B),–,–,–
